Where two headings read alike, the source gives them in different places.
Legend:
Type in all cases: in vivo, human
[1] = Plasma pharmacokinetics of brensocatib in adults with CF, once-daily oral dosing for 28 days (noncompartmental analysis); conditions: human, plasma, oral
Method: This was a phase IIa, single-blind, randomized, placebo-controlled trial with a parallel-group, multiple-dose design aimed at evaluating the PK, PD, safety, and tolerability of brensocatib in adults with CF (NCT05090904).
Participants were assigned to receive a once-daily dose of brensocatib (10 mg, 25 mg, or 40 mg) or placebo for 28 days.
Plasma PK samples were collected on days 1 (at predose and 0.5, 1, 2, 4, 6, 8, and 24 h postdose), 14 (at predose and 2 h postdose), and 28 (at predose and 0.5, 1, 2, 4, 6, 8, 24, and 168 h postdose). The concentration of brensocatib in the plasma samples was analyzed using a validated liquid chromatography with tandem mass spectrometry method at an external service provider with a quantification range of 0.25–150 ng/mL. The overall intra- and inter-batch precision and accuracy were −2.7 to 2.0% and −1.8 to 0.8%, respectively. The long-term stability was established in human plasma for 346 days at −70 °C. The validation method details were published internally and stored within Insmed’s internal document repository.
Descriptive statistics for continuous variables were calculated. Categorical variables were summarized by counts and by percentage of participants in the corresponding categories. No formal hypothesis was tested. Changes from baseline values were calculated and presented for both safety and efficacy data at each visit, including the percent change from baseline. PK parameters for brensocatib were assessed using noncompartmental analysis via Phoenix® WinNonlin® version 8.2 or later. SAS version 9.4 or higher was employed to prepare PK outputs.
Analysis of dose dependency for brensocatib Cmax, AUC0–24, and area under the concentration–time curve from time 0 to last measurable concentration (AUClast) after single-dose administration and at steady state (day 28) were performed using a power law model. Dose normalization of Cmax, AUC0–24, and AUClast was performed only when a linear and dose-dependent trend was observed.

[2] = test system: NSP activity (NE, CatG, PR3); experiment: Exposure-response of NSP activity reduction (LOESS regression); conditions: particularly in blood
Method: The NSP activity reduction reached a saturation point at approximately 25 mg, as indicated by the plateau of the associated PK measures. The sensitivity of reduction for brensocatib was greatest for CatG, followed by NE, and PR3 (Fig. 6).

neutrophil elastase (NE) = experiment: NE activity in sputum of adults with CF
Text: (§1) If a participant experienced an intercurrent event, defined as use of antibiotics during an acute event that could influence NSP levels, the data were not included in the PD analysis. In assessing treatment-emergent adverse events (TEAEs), the “while-on-treatment” strategy was implemented, which encompassed the 28-day period following the final dose of study drug. With this strategy, data collected prior to the occurrence of the intercurrent event, that is, to discontinuation of brensocatib, were included in the analysis.
(§2) On the basis of the comparability of PK between participants with and without concomitant use of CFTR modulators, NSP activity (NE, CatG, PR3) in blood and sputum was analyzed using the combined data sets without the CFTR modulator stratum.

proteinase 3 (PR3) = experiment: PR3 activity in sputum of adults with CF
Text: as §1, §2

[3] = 10 mg QD, Day 28, n = 8, mean (CV%)
[4] = 25 mg QD, Day 28, n = 7, mean (CV%)
[5] = 40 mg QD, Day 28, n = 8, mean (CV%)

Cn1c(=O)oc2ccc(-c3ccc(C[C@@H](C#N)NC(=O)[C@@H]4CNCCCO4)cc3)cc21 [Brensocatib]
AUC(0-t) ([1]; 10 mg, 10 mg QD, Day 28, n = 8, mean (CV%), read-out: AUC0–24): 1100 ng·h/mL | AUC(0-t) ([1]; 10 mg, 10 mg QD, Day 28, n = 8, mean (CV%), read-out: AUClast): 2380 ng·h/mL | AUC(0-t) ([1]; 25 mg, 25 mg QD, Day 1, n = 8, mean (CV%), read-out: AUC0–24): 1630 ng·h/mL | AUC(0-t) ([1]; 25 mg, 25 mg QD, Day 1, n = 8, mean (CV%), read-out: AUClast): 1630 ng·h/mL | AUC(0-t) ([1]; 25 mg, 25 mg QD, Day 28, n = 7, mean (CV%), read-out: AUC0–24): 3800 ng·h/mL | AUC(0-t) ([1]; 25 mg, 25 mg QD, Day 28, n = 7, mean (CV%), read-out: AUClast): 8930 ng·h/mL | Cmax ([1]; 25 mg, 25 mg QD, Day 28, n = 7, mean (CV%), read-out: Cmax): 249 ng/mL | AUC(0-t) ([1]; 40 mg, 40 mg QD, Day 1, n = 8, mean (CV%), read-out: AUC0–24): 3690 ng·h/mL | AUC(0-t) ([1]; 40 mg, 40 mg QD, Day 1, n = 8, mean (CV%), read-out: AUClast): 3690 ng·h/mL | Cmax ([1]; 40 mg, 40 mg QD, Day 1, n = 8, mean (CV%), read-out: Cmax): 342 ng/mL | AUC(0-t) ([1]; 40 mg, 40 mg QD, Day 28, n = 8, mean (CV%), read-out: AUC0–24): 6320 ng·h/mL | AUC(0-t) ([1]; 40 mg, 40 mg QD, Day 28, n = 8, mean (CV%), read-out: AUClast): 15300 ng·h/mL | Cmax ([1]; 40 mg, 40 mg QD, Day 28, n = 8, mean (CV%), read-out: Cmax): 490 ng/mL | AUC(0-t) ([1]; day 1, CFTR modulator stratum, 10-40 mg QD, read-out: mean AUC0–24 across brensocatib dose groups): 798 to 4120 ng·h/mL | AUC(0-t) ([1]; day 1, CFTR modulator stratum, 10-40 mg QD, read-out: mean AUClast across brensocatib dose groups): 798 to 4120 ng·h/mL | Cmax ([1]; day 1, CFTR modulator stratum, 10-40 mg QD, read-out: mean Cmax across brensocatib dose groups): 60.9 to 365 ng/mL | AUC(0-t) ([1]; day 1, non-CFTR modulator stratum, 10-40 mg QD, read-out: mean AUC0–24 across brensocatib dose groups): 1120 to 2400 ng·h/mL | AUC(0-t) ([1]; day 1, non-CFTR modulator stratum, 10-40 mg QD, read-out: mean AUClast across brensocatib dose groups): 1120 to 2400 ng·h/mL | Cmax ([1]; day 1, non-CFTR modulator stratum, 10-40 mg QD, read-out: mean Cmax across brensocatib dose groups): 86.4 to 274 ng/mL | AUC(0-t) ([1]; day 28, CFTR modulator stratum, 10-40 mg QD, read-out: mean AUC0–24 across brensocatib dose groups): 1080 to 7360 ng·h/mL | AUC(0-t) ([1]; day 28, CFTR modulator stratum, 10-40 mg QD, read-out: mean AUClast across brensocatib dose groups): 2440 to 17700 ng·h/mL | Cmax ([1]; day 28, CFTR modulator stratum, 10-40 mg QD, read-out: mean Cmax across brensocatib dose groups): 92 to 538 ng/mL | AUC(0-t) ([1]; day 28, non-CFTR modulator stratum, 10-40 mg QD, read-out: mean AUC0–24 across brensocatib dose groups): 1190 to 3740 ng·h/mL | AUC(0-t) ([1]; day 28, non-CFTR modulator stratum, 10-40 mg QD, read-out: mean AUClast across brensocatib dose groups): 2210 to 9540 ng·h/mL | Cmax ([1]; day 28, non-CFTR modulator stratum, 10-40 mg QD, read-out: mean Cmax across brensocatib dose groups): 84.3 to 348 ng/mL | AUC(0-inf) [1, 3]: 2430 ng·h/mL | Vd/F [1, 3]: 423 L | half-life ([1]; 10 mg QD, Day 28, n = 8, mean (CV%), read-out: t1/2 (converted)): 30 h | Tmax ([1]; 10 mg QD, Day 28, n = 8, median (range), read-out: Tmax): 1.9 h | AUC(0-inf) [1, 4]: 9300 ng·h/mL | Vd/F [1, 4]: 332 L | half-life ([1]; 25 mg QD, Day 28, n = 7, mean (CV%), read-out: t1/2 (converted)): 33.1 h | AUC(0-inf) [1, 5]: 16200 ng·h/mL | Vd/F [1, 5]: 398 L | half-life ([1]; 40 mg QD, Day 28, n = 8, mean (CV%), read-out: t1/2 (converted)): 38.5 h | Tmax ([1]; day 1 (after the first dose) and day 28 (steady state), across doses, read-out: median Tmax postdose): 1.5 to 2 h | half-life ([1]; range over CFTR modulator and non-CFTR modulator strata, read-out: elimination t1/2): 24.7 to 49.5 h | dose at which NSP activity reduction reached a saturation point [2]: approximately 25 mg | NE, median % reduction relative to baseline (neutrophil elastase (NE); 10 mg QD, day 29, n = 5): 40.7 (n = 5) % | NE, median % reduction relative to baseline (neutrophil elastase (NE); 25 mg QD, day 29, n = 3): 77.8 (n = 3) % | NE, median % reduction relative to baseline (neutrophil elastase (NE); 40 mg QD, day 29, n = 2): 69.9 (n = 2) % | PR3, median % reduction relative to baseline (proteinase 3 (PR3); 10 mg QD, day 29, n = 5): 59.1 (n = 5) % | PR3, median % reduction relative to baseline (proteinase 3 (PR3); 25 mg QD, day 29, n = 3): 67.1 (n = 3) % | PR3, median % reduction relative to baseline (proteinase 3 (PR3); 40 mg QD, day 29, n = 1): −17.0 (n = 1) %
